Measured values from ChEMBL document CHEMBL5143608, “Peptide-based long-acting co-agonists of GLP-1 and cholecystokinin 1 receptors as novel anti-diabesity agents” (Eur J Med Chem, 2022).
Activity calls are given as the source filed them. The calls are words filed in the database; no cut-off is given here. *1 amine or outer side, *2 acyl side, *3 side chain or, on linkers, in order; H or OH if unused. Where a SMILES comes first, the peptide text is derived from it. Side-chain parts run from the residue outwards. [ ]: non-standard residue; d: D form. The star is where a group is joined. γGlu = O=C(O)[C@H](CCC(=O)[*:2])N[*:1]; Palmitoyl = CCCCCCCCCCCCCCCC(=O)*; Aib = CC(C)(N)C(=O)O

Columns and labels:
Mus musculus [1] = test: Anti-diabesity activity against high fat diet-induced DIO C57BL/6 mouse model assessed as reduction in food intake at 25 nmol/kg, sc administered for 2 weeks; format: functional, organism-based; settings: time 14.0 day
Mus musculus [2] = test: Anti-diabesity activity against high fat diet-induced DIO C57BL/6 mouse model assessed as reduction in fat mass accumulation at 25 nmol/kg, sc administered for 2 weeks and measured on day 15 by NMR analysis; format: functional, organism-based; settings: time 15.0 day
Mus musculus [3] = test: Hypoglycemic activity in ICR mouse assessed as improvement in glucose tolerance at 25 nmol/kg, ip administered 30 min before oral glucose administration and measured upto 120 mins by OGTT; format: functional, organism-based
Mus musculus [4] = test: Anorectic activity in ICR mouse assessed as decrease in food intake at 25 nmol/kg, ip and measured after 9 hrs; format: functional, organism-based
Mus musculus [5] = test: Anti-diabesity activity against high fat diet-induced DIO C57BL/6 mouse model assessed as decrease in body weight at 25 nmol/kg, sc administered for 2 weeks; format: functional; settings: C57BL/6, 336 h, time 14 day
Mus musculus [6] = test: Anorectic activity in ICR mouse assessed as decrease in food intake at 25 nmol/kg, ip and measured after 24 hrs; format: functional, organism-based
Mus musculus [7] = test: Anti-diabesity activity against db/db mouse assessed as increase in islet area at 25 nmol/kg, sc administered every 2 days for 3 weeks by H and E staining based analysis; format: functional, organism-based; settings: time 21.0 day
Mus musculus [8] = test: Anti-diabesity activity against db/db mouse assessed as reduction in body weight at 25 nmol/kg, sc administered every 2 days for 3 weeks; format: functional, organism-based; settings: time 21.0 day
Mus musculus [9] = test: Hypoglycemic activity in db/db mouse assessed as improvement in glucose tolerance at 25 nmol/kg, ip administered 30 min before oral glucose administration and measured upto 120 mins by OGTT; format: functional, organism-based
Mus musculus [10] = test: Anti-diabesity activity in DIO C57BL/6 mouse assessed as reduction in body weight at 10 nmol/kg, sc administered every 2 days for 10 days; format: functional; settings: time 10.0 day
Mus musculus [11] = test: Anti-diabesity activity against db/db mouse assessed as reduction in fasting blood glucose level at 25 nmol/kg, sc administered every 2 days for 6 weeks followed by saline treatment for 6 weeks and measured during first 6 weeks; format: functional, organism-based
Mus musculus [12] = test: Anti-diabesity activity against DIO C57BL/6 mouse assessed as reduction in fasted blood glucose level at 25 nmol/kg, sc administered every 2 days for 3 weeks; format: functional, organism-based; settings: time 21.0 day
Mus musculus [13] = test: Anti-diabesity activity against db/db mouse assessed as reduction in HbA1c level at 25 nmol/kg, sc administered every 2 days for 6 weeks followed by saline treatment for 6 weeks and measured during first 6 weeks; format: functional, organism-based
Mus musculus [14] = test: Anti-diabesity activity against DIO C57BL/6 mouse assessed as reduction in cumulative food intake at 25 nmol/kg, sc administered every 2 days for 3 weeks; format: functional, organism-based; settings: time 21.0 day
Mus musculus [15] = test: Anti-diabesity activity against db/db mouse assessed as reduction in fasting blood glucose level at 25 nmol/kg, sc administered every 2 days for 6 weeks followed by saline treatment for 6 weeks and measured during second 6 weeks; format: functional, organism-based
Mus musculus [16] = test: Anti-diabesity activity in DIO C57BL/6 mouse assessed as reduction in body weight at 25 nmol/kg, sc administered every 2 days for 10 days; format: functional; settings: time 10.0 day
Mus musculus [17] = test: Anti-diabesity activity against DIO C57BL/6 mouse assessed as decrease in fat mass at 25 nmol/kg, sc administered every 2 days for 3 weeks; format: functional, organism-based; settings: time 21.0 day
Mus musculus [18] = test: Anti-diabesity activity against db/db mouse assessed as increase in insulin sensitivity by measuring reduction in plasma insulin level at 25 nmol/kg, sc administered every 2 days for 12 weeks by ELISA; format: functional, organism-based
Mus musculus [19] = test: Anti-diabesity activity against db/db mouse assessed as reduction in fasting blood glucose level at 25 nmol/kg, sc administered every 2 days for 12 weeks; format: functional, organism-based
Mus musculus [20] = test: Anti-diabesity activity against db/db mouse assessed as improvement in glucose tolerance level at 25 nmol/kg, sc administered every 2 days for 6 weeks followed by saline treatment for 6 weeks and measured during first 6 weeks by OGTT; format: functional, organism-based
Mus musculus [21] = test: Hypoglycemic activity in db/db mouse assessed as reduction in glucose excursion at 25 nmol/kg, ip administered 30 min before oral glucose administration and measured upto 120 mins by OGTT; format: functional, organism-based
Mus musculus [22] = test: Anti-diabesity activity against db/db mouse assessed as reduction in HbA1c level at 25 nmol/kg, sc administered every 2 days and measured on day 43; format: functional, organism-based; settings: time 43.0 day
Mus musculus [23] = test: Anti-diabesity activity against db/db mouse assessed as HbA1c level at 25 nmol/kg, sc administered every 2 days for 3 weeks; format: functional, organism-based; settings: time 21.0 day
Mus musculus [24] = test: Anti-diabesity activity against db/db mouse assessed as improvement in glucose tolerance at 25 nmol/kg, sc administered every 2 days for 12 weeks by OGTT; format: functional, organism-based
BRIN-BD11 = test: Insulinotropic activity in rat BRIN-BD11 cells assessed as increase in insulin secretion incubated for 20 mins by radioimmunoassay; format: functional, cell-based; settings: DDE = dose-dependent effect
Mus musculus [25] = test: Anti-diabesity activity against db/db mouse assessed as reduction in cumulative food intake at 25 nmol/kg, sc administered every 2 days for 3 weeks; format: functional, organism-based; settings: time 21.0 day
Mus musculus [26] = test: Anti-diabesity activity against db/db mouse assessed as increase in islet number at 25 nmol/kg, sc administered every 2 days for 3 weeks by H and E staining based analysis; format: functional, organism-based; settings: time 21.0 day
Mus musculus [27] = test: Anti-diabesity activity against db/db mouse assessed as reduction in HbA1c level at 25 nmol/kg, sc administered every 2 days for 6 weeks followed by saline treatment for 6 weeks and measured during second 6 weeks; format: functional, organism-based
Mus musculus [28] = test: Anti-diabesity activity against db/db mouse assessed as enhanced islets insulin content at 25 nmol/kg, sc administered every 2 days for 3 weeks by immunohistochemistry staining; format: functional, organism-based; settings: time 21.0 day
Mus musculus [29] = test: Anti-diabesity activity against DIO C57BL/6 mouse assessed as reduction in cholesterol level in serum at 25 nmol/kg, sc administered every 2 days for 3 weeks; format: functional, organism-based; settings: time 21.0 day
Mus musculus [30] = test: Anti-diabesity activity against DIO C57BL/6 mouse assessed as improvement in glucose tolerance at 25 nmol/kg, sc administered every 2 days for 3 weeks by OGTT; format: functional, organism-based; settings: time 21.0 day
Mus musculus [31] = test: Anti-diabesity activity against db/db mouse assessed as improvement in glucose tolerance level at 25 nmol/kg, sc administered every 2 days for 6 weeks followed by saline treatment for 6 weeks and measured during second 6 weeks by OGTT; format: functional, organism-based
Mus musculus [32] = test: Anti-diabesity activity against db/db mouse assessed as increase in IOD of insulin in pancreas at 25 nmol/kg, sc administered every 2 days for 12 weeks by immunohistochemistry; format: functional, organism-based
Mus musculus [33] = test: Anti-diabesity activity against db/db mouse assessed as reduction in fasted blood glucose level at 25 nmol/kg, sc administered every 2 days for 3 weeks; format: functional, organism-based; settings: time 21.0 day
Mus musculus [34] = test: Anti-diabesity activity against DIO C57BL/6 mouse assessed as reduction in triglycerides level in serum at 25 nmol/kg, sc administered every 2 days for 3 weeks; format: functional, organism-based; settings: time 21.0 day
Mus musculus [35] = test: Anti-diabesity activity against db/db mouse assessed as improvement in glucose tolerance at 25 nmol/kg, sc administered every 2 days for 3 weeks by OGTT; format: functional, organism-based; settings: time 21.0 day
Mus musculus [36] = test: Insulinotropic activity in db/db mouse assessed as elevation of plasma insulin level at 25 nmol/kg, ip administered 30 min before oral glucose administration and measured upto 60 mins by ELISA; format: functional, organism-based; settings: time <= 90.0 min
Mus musculus [37] = test: Anti-diabesity activity against db/db mouse assessed as increase in pancreas mass at 25 nmol/kg, sc administered every 2 days for 12 weeks; format: functional, organism-based
Mus musculus [38] = test: Anti-diabesity activity in DIO C57BL/6 mouse assessed as reduction in body weight at 100 nmol/kg, sc administered every 2 days for 10 days; format: functional; settings: time 10.0 day
Mus musculus [39] = test: Anti-diabesity activity against DIO C57BL/6 mouse assessed as reduction in body weight at 25 nmol/kg, sc administered every 2 days for 3 weeks; format: functional; settings: time 21.0 day
Mus musculus [40] = test: Anti-diabesity activity in DIO C57BL/6 mouse assessed as improvement in insulin sensitivity at 25 nmol/kg, sc administered every 2 days for 10 days by insulin tolerance test; format: functional, organism-based; settings: time 10.0 day
Mus musculus [41] = test: Anti-diabesity activity against db/db mouse assessed as reduction in HbA1c level at 25 nmol/kg, sc administered every 2 days for 12 weeks; format: functional, organism-based

CCCCCCCCCCCCCCCC(=O)N[C@@H](CCC(=O)NCCCC[C@H](NC(=O)[C@H](C)NC(=O)[C@H](C)NC(=O)[C@H](CCC(=O)O)NC(=O)[C@H](CCC(=O)O)NC(=O)[C@H](CCC(=O)O)NC(=O)[C@H](CC(C)C)NC(=O)[C@@H](NC(=O)[C@H](CCC(=O)O)NC(=O)[C@@H](NC(=O)[C@@H](NC(=O)[C@H](CC(=O)O)NC(=O)[C@H](CC(N)=O)NC(=O)[C@@H](NC(=O)[C@H](Cc1ccc(O)cc1)NC(=O)[C@@H](NC(=O)CNC(=O)[C@H](CCC(=O)O)NC(=O)C(C)(C)NC(=O)[C@@H](N)Cc1cnc[nH]1)[C@@H](C)O)[C@@H](C)O)C(C)C)[C@@H](C)O)[C@@H](C)O)C(=O)N[C@@H](CCC(=O)O)C(=O)N[C@@H](Cc1ccccc1)C(=O)N[C@H](C(=O)N[C@@H](CCC(=O)O)C(=O)N[C@@H](Cc1c[nH]c2ccccc12)C(=O)N[C@@H](CC(C)C)C(=O)N[C@H](C(=O)N[C@@H](CCCCN)C(=O)NCC(=O)N[C@@H](CCCCN)C(N)=O)[C@@H](C)CC)[C@@H](C)CC)C(=O)O (H-H[Aib]EGTYTNDVTETLEEEAAK([γGlu-Palmitoyl])EFIEWLIKGK-NH2)
Activity (Mus musculus [1]): Active
Activity (Mus musculus [2]): Active
Activity (Mus musculus [3]): Active
Activity (Mus musculus [4]): Active
inhibition in vivo at 0.025 µmol/kg (Mus musculus [5]): 12.1%
Activity (Mus musculus [6]): Active

SEMAGLUTIDE
Activity (Mus musculus [7]): Active
Activity (Mus musculus [8]): Active
Activity (Mus musculus [9]): Active
inhibition (Mus musculus [10]): 8.2%
Activity (Mus musculus [11]): Active
Activity (Mus musculus [12]): Active
Activity (Mus musculus [13]): Active
Activity (Mus musculus [14]): Active
Activity (Mus musculus [15]): Active
inhibition (Mus musculus [16]): 12.5%
Activity (Mus musculus [17]): Active
Activity (Mus musculus [18]): Active
Activity (Mus musculus [19]): Active
Activity (Mus musculus [20]): Active
Activity (Mus musculus [21]): Active
Activity (Mus musculus [22]): Active
Activity (Mus musculus [23]): Active
Activity (Mus musculus [24]): Active
Activity (BRIN-BD11): Dde
Activity (Mus musculus [25]): Active
Activity (Mus musculus [26]): Active
Activity (Mus musculus [27]): Active
Activity (Mus musculus [28]): Active
Activity (Mus musculus [29]): Active
Activity (Mus musculus [30]): Active
Activity (Mus musculus [31]): Active
Activity (Mus musculus [32]): Active
Activity (Mus musculus [33]): Active
Activity (Mus musculus [34]): Active
Activity (Mus musculus [35]): Active
Activity (Mus musculus [36]): Active
Activity (Mus musculus [37]): Active
inhibition (Mus musculus [38]): 17.3%
inhibition (Mus musculus [39]): 14.9%
Activity (Mus musculus [40]): Active
Activity (Mus musculus [41]): Active
